Tests used:
[1] = test system: NP110SM cells; assay: Differentiation of clonal embryonic progenitor line NP110SM in HyStem beads, Illumina microarray gene expression; type: cell-based, human; conditions: NP110SM; 10 M CL316243 together with 50 ng/ml BMP4 and 5.0 μM rosiglitazone; FIG. 15 lane 9
Protocol: (§1) Differentiation medium is high glucose DMEM (CellGro Cat. No. 15-013-CV) with Pyruvate, 1 mM (Gibco Cat. 11360), Pen:Strep 100U/ml:100 ug/ml (Gibco Cat. No. 504284), Glutamax 2 mM (Gibco Cat. No. 35050), Dexamethasone 0.1 uM (Sigma, St. Louis, Mo., Cat. No. D1756-100), L-Proline 0.35 mM (Sigma Cat. No. D49752), 2-phospho-L-Ascorbic Acid 0.17 mM (Sigma, Cat. No. 49792, Fluka), and ITS Premix (BD, Franklin Lakes, N.J., sterile Cat. No. 47743-628) with a final concentration 6.25 ug/ml insulin, 6.25 ug/ml transferrin, 6.25 ng/ml selenious acid, serum albumin 1.25 mg/ml, 5.35 ug/ml linoleic acid. In various differentiation conditions, the Differentiation medium is supplemented with various growth factors or other differentiation factors as described herein.
HyStem-C (BioTime, Inc. Alameda, Calif.) is a matrix composed of thiol-modified gelatin and thiolated hyaluronan crosslinked in vivo or in vitro with (polyethylene glycol diacrylate (PEGDA). We observed that clonal human embryonic progenitor cell lines such as those described in the present invention, could be efficiently differentiated in high-density cultures of said crosslinked collagen and hyaluronate in the following manner. HyStem-C® (BioTime, CA, USA) is reconstituted following the manufacturer's instructions. Briefly, the HyStem component (10 mg of thiol-modified hyaluronan) is dissolved in 1.0 ml of degassed deionized water for approximately 20 min to prepare a 1% w/v solution. The Gelin-S® component (10 mg of thiol-modified gelatin (BioTime)) is dissolved in 1.0 ml of degassed deionized water to prepare a 1% w/v solution, and polyethylene glycol diacrylate (10 mg of PEGDA) is dissolved in 0.5 ml of degassed deionized water to prepare a 2% w/v solution. Then, HyStem (1 ml, 1% w/v) is mixed with Gelin-S (1 ml, 1% w/v) immediately before use. Pelleted cells are resuspended in the recently prepared HyStem:Gelin-S (1:1 v/v) mix described above. Upon the addition of the PEGDA cross-linker, the cell suspension, at a final concentration of 2.0×10^7 cells/ml is aliquoted (25 μl/aliquot) into six-well plates (Corning® 3516; VWR, PA, USA) after partial gelation. Following complete gelation (20 min), Differentiation Medium is added to each well. Plates were then placed in a humidified incubator at 37° C. with ambient O2 and 10% CO2, and the cells were fed three-times weekly. At the desired time point, hydrogel constructs were either fixed and processed for immunohistochemical analysis or lysed using RLT (Qiagen, CA, USA) with 1% beta-mercaptoethanol for total RNA to analyze transcript expression using quantitative real-time PCR (qRT-PCR) and/or whole-genome microarray.
(§2) Total RNA was extracted directly from cells growing in 6-well plates or 10 cm tissue culture dishes using Qiagen RNeasy mini kits according to the manufacturer's instructions. RNA concentrations were measured using a Beckman DU530 or Nanodrop spectrophotometer and RNA quality was determined by denaturing agarose gel electrophoresis or using an Agilent 2100 bioanalyzer. Whole-genome expression analysis was carried out using Illumina Human Ref-8v3 or Human HT-12 v4 BeadArrays, and RNA levels for certain genes were confirmed by qRT-PCR. For the Illumina BeadArrays, total RNA was linearly amplified and biotin-labeled using Illumina TotalPrep kits (Life Technologies, Temecula, Calif., USA), and cRNA was quality-controlled using an Agilent 2100 Bioanalyzer. The cRNA was hybridized to Illumina BeadChips, processed, and read using a BeadStation array reader according to the manufacturer's instructions (Illumina, San Diego, Calif., USA). Values of less than 120 relative fluorescence units (RFUs) were considered as nonspecific background signal.
The line NP110SM was then exposed to differentiation in the BAT cell differentiation protocols described herein. […]

[2] = test system: cell line E3; assay: Differentiation of clonal hEP cell line E3 in HyStem beads, Illumina microarray gene expression; type: cell-based, human
Protocol: as §1
(§3) The Gelin-S® component (10 mg of thiol-modified gelatin (BioTime)) is dissolved in 1.0 ml of degassed deionized water to prepare a 1% w/v solution, and polyethylene glycol diacrylate (10 mg of PEGDA) is dissolved in 0.5 ml of degassed deionized water to prepare a 2% w/v solution. Then, HyStem (1 ml, 1% w/v) is mixed with Gelin-S (1 ml, 1% w/v) immediately before use. Pelleted cells are resuspended in the recently prepared HyStem:Gelin-S (1:1 v/v) mix described above. Upon the addition of the PEGDA cross-linker, the cell suspension, at a final concentration of 2.0×10^7 cells/ml is aliquoted (25 μl/aliquot) into six-well plates (Corning® 3516; VWR, PA, USA) after partial gelation. Following complete gelation (20 min), Differentiation Medium is added to each well. Plates were then placed in a humidified incubator at 37° C. with ambient O2 and 10% CO2, and the cells were fed three-times weekly. At the desired time point, hydrogel constructs were either fixed and processed for immunohistochemical analysis or lysed using RLT (Qiagen, CA, USA) with 1% beta-mercaptoethanol for total RNA to analyze transcript expression using quantitative real-time PCR (qRT-PCR) and/or whole-genome microarray.
as §2

[3] = test system: cell line E72; assay: Differentiation of cell line E72 in HyStem, gene expression; type: cell-based, human; conditions: E72 passage 11; HyStem-C supplemented with 1.0 uM all-trans retinoic acid
Protocol: HyStem-C (BioTime, Inc. Alameda, Calif.) (BioTime, Alameda, Calif., USA) was reconstituted following the manufacturer's instructions. Briefly, the HyStem component (thiol modified hyaluronan, 10 mg) was dissolved in 1.0 ml degassed deionized water for about 20 minutes to prepare a 1% w/v solution. The Gelin-S component (thiol modified gelatin, 10 mg) was dissolved in 1 ml degassed deionized water to prepare a 1% w/v solution, and PEGDA (PEG diacrylate, 10 mg) was dissolved in 0.5 ml degassed deionized water to prepare a 2% w/v solution. HyStem (1 ml, 1% w/v) was mixed with Gelin-S (1 ml, 1% w/v) immediately before use. Pelleted cells were resuspended in recently prepared HyStem:Gelin-S (1:1 v/v) mix described above. Upon the addition of crosslinker PEGDA, the cell suspension, at a final concentration of 2.0×10^7 cells/ml, was aliquoted at 25 μl aliquot four to five times into each well of 6 well plates (Corning 3516) after partial gelation to form attached beads. Following complete gelation (20 minutes), chondrogenic medium was added to each well (i.e about 4 ml/each well of a 6 well plate). […]
The Gelin-S® component (10 mg of thiol-modified gelatin (BioTime)) is dissolved in 1.0 ml of degassed deionized water to prepare a 1% w/v solution, and polyethylene glycol diacrylate (10 mg of PEGDA) is dissolved in 0.5 ml of degassed deionized water to prepare a 2% w/v solution. […] At the desired time point, hydrogel constructs were either fixed and processed for immunohistochemical analysis or lysed using RLT (Qiagen, CA, USA) with 1% beta-mercaptoethanol for total RNA to analyze transcript expression using quantitative real-time PCR (qRT-PCR) and/or whole-genome microarray.
Total RNA was extracted directly from cells growing in 6-well plates or 10 cm tissue culture dishes using Qiagen RNeasy mini kits according to the manufacturer's instructions. RNA concentrations were measured using a Beckman DU530 or Nanodrop spectrophotometer and RNA quality was determined by denaturing agarose gel electrophoresis or using an Agilent 2100 bioanalyzer. […] The cRNA was hybridized to Illumina BeadChips, processed, and read using a BeadStation array reader according to the manufacturer's instructions (Illumina, San Diego, Calif., USA).

[4] = test system: Bone marrow-derived mesenchymal stem cells (MSCs); assay: Differentiation of bone marrow-derived MSCs in HyStem-C beads, FABP4 expression; type: cell-based; conditions: 14 days, 50 ng/mL BMP2, or 10 ng/mL BMP4, or 100 ng/mL BMP7
Protocol: as §3

## C[C@H](Cc1ccc2c(c1)OC(C(=O)[O-])(C(=O)[O-])O2)NC[C@H](O)c1cccc(Cl)c1.[Na+].[Na+] [CL316243, reference compound]
[1]
  UCP1 expression: appeared to further increase

## CN(CCOc1ccc(CC2SC(=O)NC2=O)cc1)c1ccccn1 (stereo not drawn) [rosiglitazone, reference compound]
[2]; E3, HyStem beads with 1.0 μM rosiglitazone, FIG. 3
  ADIPOQ transcript expression: > 5,000 RFUs
[2]; E3, HyStem beads, 1.0 μM rosiglitazone in combination with 100 ng/ml BMP7, values greater than 160 RFUs above background
  UCP1 transcript expression: 161 RFUs

## CC1=C(/C=C/C(C)=C/C=C/C(C)=C/C(=O)O)C(C)(C)CCC1 [all-trans retinoic acid, reference compound]
[3]
  expression of HOXB6, a marker of lateral plate mesenchyme: induced the expression of HOXB6

## O=C(Nc1ccncc1)c1cc([N+](=O)[O-])ccc1Cl [T0070907, reference compound]
[2]; HyStem with 10 ng/ml BMP4 plus T0070907, compared to HyStem BMP4 alone, cell line not restated
  C19ORF80 expression: decreased C19ORF80 expression
[2]; presence of the PPARγ antagonist T0070907, FIG. 7, cell line not restated
  THRSP expression: decreased to nearly undetectable levels

B1: BMP7: Bone Morphogenetic Protein 7, TGF-beta superfamily member (protein, UniProt P18075 293-431, looked up)
Bone morphogenetic protein 7: STGSKQRSQNRSKTPKNQEALRMANVAENSSSDQRQACKKHELYVSFRDLGWQDWIIAPEGYAAYYCEGECAFPLNSYMNATNHAIVQTLVHFINPETVPKPCCAPTQLNAISVLYFDDSSNVILKKYRNMVVRACGCH
[2]; E3, HyStem beads with 10 ng/ml BMP4 or 100 ng/ml BMP7, FIG. 5
  PCK1 transcript expression: relatively high levels
[2]; E3, HyStem supplemented with 100 ng/ml BMP7
  expression of C19ORF80: highest expression
[4]
  differentiation into adipocytes as evidenced by expression of FABP4: caused the differentiation of the cells into adipocytes

From patent US20230093399A1, “METHODS FOR GENERATING PLURIPOTENT STEM CELL-DERIVED BROWN FAT CELLS” (AgeX Therapeutics, Inc., priority 2013, published 2023)
